pEC50, pIC50: −log10 of the molar value. Where a name gives a salt, the structure may show the parent alone. Read-outs that look alike come from different tables or passages of the source. Marks after values point to notes of the source that are not given here.

One experiment has as its system L. major promastigote. Kind of experiment: L. major promastigote assay. Format: cell-based.
In another experiment the test system is T. cruzi. Put plainly: T. cruzi growth inhibition. The experiment is classed as cell-based, Trypanosoma cruzi. As to conditions: for pEC50 / inhibition at 10 µM: Trypanosoma cruzi; for inhibition at 10 µM: read-out: T. cruzi % inh at 10 μM.
The test system of experiment [1] is T. brucei brucei Lister 427. Put plainly: Trypanosome replication assay. Format: cell-based, Trypanosoma brucei brucei. As to conditions: 48 h, 48 h, values ±7%.
For another experiment, the system named is P. fal. Put plainly: P. fal assay of Table 13 (strain not given). Format: cell-based, P. falciparum.
In another experiment the test system is L. major amastigote. Kind of experiment: L. major amastigote assay. Format: cell-based.
Another experiment deals with P. falciparum D6. Kind of experiment: P. falciparum D6 assay. Format: cell-based. As to conditions: strain D6.
The next experiment relates to P. falciparum C235. Kind of experiment: P. falciparum C235 assay. The experiment is classed as cell-based. As to conditions: read-out: P. falciparum C235 (EC50).
A further experiment has as its system HepG2 cells. Kind of experiment: HepG2 cell toxicity (MTT) assay. The experiment is classed as cell-based.
The subject of a further experiment is P. falciparum W2. Put plainly: P. falciparum W2 assay. Format: cell-based.
[2] abbreviates: Trypanosoma brucei, concentration giving 50% inhibition of growth of T brucei brucei Lister 427 cells, read-out: Tbb EC50.
Setting [3] is: Plasmodium falciparum, strain C235.
Where [4] appears, read: Homo sapiens, HepG2, 48 h, MTT, 48 hour incubation, read-out: HepG2 IC50.
[5] abbreviates: Plasmodium falciparum, strain W2, read-out: P. falciparum W2 (EC50).
[6] abbreviates: Trypanosoma brucei, read-out: Tbb EC50, concentration giving 50% inhibition of growth of T brucei brucei Lister 427 cells.
The mark [7] stands for this setting: concentration giving 50% inhibition of growth of T brucei brucei Lister 427 cells, read-out: Tbb EC50.

Regarding `CN1CCN(S(=O)(=O)c2ccc(-c3ccc4c(Nc5ccc(OCc6cccc(F)c6)c(Cl)c5)cnnc4c3)cc2)CC1` [NEU-1016, N-(3-Chloro-4-((3-fluorobenzyl)oxy)phenyl)-7-(4-((4-methylpiperazin-1-yl)sulfonyl)phenyl)cinnolin-4-amine], the pEC50 is 5.24 in the experiment with L. major promastigote (Leishmania major); 5.51 in the experiment with T. cruzi; 6.00 in experiment [1] (setting [2]); 7.85 in the experiment on P. fal (Plasmodium falciparum); 5.70 in the experiment on L. major amastigote (Leishmania major).
As for `CN1CCCN(S(=O)(=O)c2ccc(-c3ccc4ccnc(Nc5ccc(OCc6cccc(F)c6)c(Cl)c5)c4c3)cc2)CC1` [NEU-962, N-(3-Chloro-4-((3-fluorobenzyl)oxy)phenyl)-7-(4-((4-methyl-1,4-diazepan-1-yl)sulfonyl)phenyl)isoquinolin-1-amine], the pEC50 in the experiment with L. major promastigote (Leishmania major) was 5.89; with T. cruzi, 5.33; in experiment [1] (setting [2]), 6.14; with P. fal (Plasmodium falciparum), 7.07; with L. major amastigote (Leishmania major) it was 5.66.
Regarding `CN1CCN(S(=O)(=O)c2ccc(-c3ccc4ccnc(Nc5ccc(OCc6cccc(F)c6)c(Cl)c5)c4c3)cc2)CC1` [NEU-950, N-(3-Chloro-4-((3-fluorobenzyl)oxy)phenyl)-7-(4-((4-methylpiperazin-1-yl)sulfonyl)phenyl)isoquinolin-1-amine], the pEC50 is < 4.82 in the experiment with L. major promastigote (Leishmania major); < 4.30 in the experiment with T. cruzi; 5.74 in experiment [1] (setting [2]); 7.40 in the experiment with P. fal (Plasmodium falciparum); < 4.82 in the experiment on L. major amastigote (Leishmania major).
As for `Fc1cccc(COc2ccc(Nc3nncc4cc(-c5cccc(N6CCOCC6)c5)ccc34)cc2Cl)c1` [NEU-1037, N-(3-Chloro-4-((3-fluorobenzyl)oxy)phenyl)-6-(3-morpholinophenyl)phthalazin-1-amine], the pEC50 with L. major promastigote (Leishmania major) is < 4.82; in the experiment on T. cruzi it was < 4.30; in [1] (setting [2]) it was 5.85; with P. fal (Plasmodium falciparum), 6.62; with L. major amastigote (Leishmania major), 5.66.
In the same order, the values of `CN1CCCN(S(=O)(=O)c2ccc(-c3ccc4c(Nc5ccc(OCc6cccc(F)c6)c(Cl)c5)nccc4c3)cc2)CC1` [NEU-963, N-(3-Chloro-4-((3-fluorobenzyl)oxy)phenyl)-6-(4-((4-methyl-1,4-diazepan-1-yl)sulfonyl)phenyl)isoquinolin-1-amine] are 6.36, 4.48, 6.41, 6.39 and 5.36.
As to `CN1CCN(S(=O)(=O)c2ccc(-c3ccc4c(Nc5ccc(OCc6cccc(F)c6)c(Cl)c5)nccc4c3)cc2)CC1` [NEU-951, N-(3-Chloro-4-((3-fluorobenzyl)oxy)phenyl)-6-(4-((4-methylpiperazin-1-yl)sulfonyl)phenyl)isoquinolin-1-amine], the pEC50 in the experiment on L. major promastigote (Leishmania major) is 5.57; with T. cruzi, < 4.30; in experiment [1] (setting [2]) it was 7.00; in the experiment with P. fal (Plasmodium falciparum) it was 6.96; in the experiment with L. major amastigote (Leishmania major), < 4.82.
Regarding `CN1CCCN(S(=O)(=O)c2ccc(-c3ccc4ncnc(Nc5ccc(OCc6cccc(F)c6)c(Cl)c5)c4c3)cc2)CC1` [Compound 10q, N-(3-Chloro-4-((3-fluorobenzyl)oxy)phenyl)-6-(4((4-methyl-1,4-diazepan-1-yl)sulfonyl)phenyl)quinazolin-4-amine], the pEC50 was 7.34 in the experiment on P. falciparum D6 (Plasmodium falciparum); 5.44 in the experiment on L. major promastigote (Leishmania major); 6.29 in the experiment on T. cruzi; 6.09 in experiment [1] (setting [2]); 7.30 in the experiment on P. falciparum C235 (setting [3]); 5.70 with L. major amastigote (Leishmania major). The pEC50 in the experiment on P. falciparum W2 (setting [5]) is 7.28. Moreover, in the experiment on HepG2 cells (setting [4]), the pIC50 is 5.74.
For `O=S(=O)(c1ccc(-c2ccc3ncnc(Nc4ccc(OCc5ccc(F)cc5)c(Cl)c4)c3c2)cc1)N1CCOCC1` [Compound 20j, N-(3-Chloro-4-((4-fluorobenzyl)oxy)phenyl)-6-(4-(morpholinosulfonyl)phenyl)quinazolin-4-amine Hydrochloride], the pEC50 in the experiment with P. falciparum D6 (Plasmodium falciparum) is 6.77; with L. major promastigote (Leishmania major), 5.77; in experiment [1] (setting [2]) it was 5.87; in [1] (concentration giving 50% inhibition of growth of T brucei brucei Lister 427 cells, listed as NEU-566, Hydrochloride, read-out: Tbb EC50), 5.89; in the experiment on P. falciparum C235 (setting [3]), 6.62; in the experiment on L. major amastigote (Leishmania major) it was < 4.82. Further, the pEC50 with P. falciparum W2 (setting [5]) was 6.44. Moreover, in the experiment with T. cruzi, the inhibition at 10 µM is -1%. In addition, in the experiment on HepG2 cells (setting [4]), the negative logarithm of the IC50 (pIC50) was < 4.82.
As for `Fc1cccc(COc2ccc(Nc3ncnc4ccc(-c5ccc(N6CCOCC6)cc5)cc34)cc2Cl)c1` [Compound 23b, N-(3-Chloro-4-((3-fluorobenzyl)oxy)phenyl)-6-(4-morpholinophenyl)quinazolin-4-amine], the pEC50 in the experiment on P. falciparum D6 (Plasmodium falciparum) is 6.57; with L. major promastigote (Leishmania major) it was 5.36; in [1] (setting [6]), 5.72; in experiment [1] (read-out: Tbb EC50, concentration giving 50% inhibition of growth of T brucei brucei Lister 427 cells, listed as NEU-733), 5.72; in the experiment with P. falciparum C235 (setting [3]) it was 6.54; in the experiment on L. major amastigote (Leishmania major), < 4.82. Also, in the experiment with P. falciparum W2 (setting [5]), the pEC50 was 5.96. Also, in the experiment with T. cruzi, the inhibition at 10 µM is 10%. For the same compound, in the experiment with HepG2 cells (setting [4]), the pIC50 was 5.02.
In the case of `O=S(=O)(c1cccc(-c2ccc3ncnc(Nc4ccc(OCc5cccc(F)c5)c(Cl)c4)c3c2)c1)N1CCCC1` [Compound 10o], the pEC50 is 6.72 in the experiment on P. falciparum D6; < 4.82 in the experiment with L. major promastigote; 6.60 in experiment [1] (setting [7]); 6.52 in the experiment on P. falciparum C235 (strain C235); < 4.82 with L. major amastigote; 6.32 with P. falciparum W2 (strain W2, read-out: P. falciparum W2 (EC50)). In addition, the “T. cruzi % inh at 10 μM” value in the experiment with T. cruzi (10 μM) is listed as “(32)* %”. In addition, the negative-log IC50 (pIC50) in the experiment with HepG2 cells (MTT, 48 hour incubation, read-out: HepG2 IC50) was < 4.82.
Consider `O=S(=O)(c1ccc(-c2ccc3ncnc(Nc4ccc(OCc5cccc(Cl)c5)c(Cl)c4)c3c2)cc1)N1CCOCC1` [Compound 20g, N-(3-Chloro-4-((3-chlorobenzyl)oxy)phenyl)-6-(4-(morpholinosulfonyl)phenyl)quinazolin-4-amine Hydrochloride], for which the pEC50 in the experiment on P. falciparum D6 (Plasmodium falciparum) was 6.64; in the experiment with L. major promastigote (Leishmania major) it was 4.82; in [1] (setting [2]) it was 6.18; in the experiment on P. falciparum C235 (setting [3]) it was 6.48; with L. major amastigote (Leishmania major), 5.96; in the experiment on P. falciparum W2 (setting [5]), 6.18. For the same compound, the inhibition at 10 µM in the experiment on T. cruzi was 4%. For the same compound, the negative logarithm of the IC50 (pIC50) in the experiment on HepG2 cells (setting [4]) was < 4.82.
With `O=S(=O)(c1ccc(-c2ccc3c(Nc4ccc(OCc5ccccc5)c(Cl)c4)ccnc3c2)cc1)N1CCOCC1` [NEU-944, N-(4-(Benzyloxy)-3-chlorophenyl)-7-(4-(morpholinosulfonyl)phenyl)quinolin-4-amine], the pEC50 in the experiment with T. cruzi was 5.46; in experiment [1] (setting [2]), 6.62; in the experiment with P. fal (Plasmodium falciparum), 7.80.
Regarding `Fc1cccc(COc2ccc(Nc3nncc4ccc(-c5cccc(N6CCOCC6)c5)cc34)cc2Cl)c1` [NEU-1035, N-(3-Chloro-4-((3-fluorobenzyl)oxy)phenyl)-7-(3-morpholinophenyl)phthalazin-1-amine], the pEC50 was < 4.82 with L. major promastigote (Leishmania major); < 4.30 in the experiment on T. cruzi; 6.54 in [1] (setting [2]); 6.96 in the experiment on P. fal (Plasmodium falciparum); 5.77 with L. major amastigote (Leishmania major).
In the case of `O=S(=O)(c1ccc(-c2ccc3ncnc(Nc4ccc(OCc5cccc(F)c5)c(Cl)c4)c3c2)cc1)N1CCSCC1` [Compound 10r, N-(3-Chloro-4-((3-fluorobenzyl)oxy)phenyl)-6-(4-(thiomorpholinosulfonyl)phenyl)quinazolin-4-amine], the pEC50 in the experiment on P. falciparum D6 (Plasmodium falciparum) is 6.34; in the experiment with L. major promastigote (Leishmania major), < 4.82; in [1] (setting [2]), 6.33; in the experiment on P. falciparum C235 (Plasmodium falciparum) it was 6.12; in the experiment on L. major amastigote (Leishmania major), < 4.82; in the experiment with P. falciparum W2 (setting [5]) it was 5.80. In the experiment with T. cruzi, the inhibition at 10 µM is 18%. Also, the negative logarithm of the IC50 (pIC50) in the experiment with HepG2 cells (setting [4]) is < 4.82.
Consider `CN1CCN(S(=O)(=O)c2ccc(-c3ccc4ncnc(Nc5ccc(OCc6cccc(F)c6)c(Cl)c5)c4c3)cc2)CC1` [Compound 10p, N-(3-Chloro-4-((3-fluorobenzyl)oxy)phenyl)-6-(4-((4-methylpiperazin-1-yl)sulfonyl)phenyl)quinazolin-4-amine], for which the pEC50 in the experiment on P. falciparum D6 (Plasmodium falciparum) was 7.57; with L. major promastigote (Leishmania major), 5.55; in [1] (setting [2]) it was 6.28; in the experiment on P. falciparum C235 (setting [3]), 7.41; with L. major amastigote (Leishmania major), 5.80; with P. falciparum W2 (setting [5]), 7.36. Besides, in the experiment with T. cruzi, the inhibition at 10 µM came out at 60%. The pIC50 with HepG2 cells (setting [4]) was < 4.82.
For the compound `CN1CCN(S(=O)(=O)c2ccc(-c3ccc4ncc(C#N)c(Nc5ccc(OCc6cccc(F)c6)c(Cl)c5)c4c3)cc2)CC1` [NEU-993], the figures for the pEC50 (in the experiment on L. major promastigote; in experiment [1] (setting [7]); with P. fal) were < 4.82, 5.96 and 7.09, respectively.
Turning to `O=S(=O)(c1cccc(-c2ccc3ncnc(Nc4ccc(OCc5cccc(F)c5)c(Cl)c4)c3c2)c1)N1CCCCC1` [Compound 10m, N-(3-Chloro-4-((3-fluorobenzyl)oxy)phenyl)-6-(3-(piperidin-1-ylsulfonyl)phenyl)quinazolin-4-amine], the pEC50 in the experiment on P. falciparum D6 (Plasmodium falciparum) is 6.48; with L. major promastigote (Leishmania major) it was < 4.82; in the experiment with T. cruzi, < 4.30; in experiment [1] (setting [6]) it was 6.34; with P. falciparum C235 (Plasmodium falciparum) it was 6.46; in the experiment with L. major amastigote (Leishmania major) it was < 4.82. In addition, in the experiment with P. falciparum W2 (Plasmodium falciparum, W2, read-out: P. falciparum W2 (EC50)), the pEC50 was 6.23. The pIC50 is < 4.82 in the experiment on HepG2 cells (Homo sapiens, HepG2, 48 h, read-out: HepG2 IC50, MTT, 48 hour incubation) and < 4.70 in the experiment with HepG2 cells (read-out: HepG2 IC50, MTT, 48 hour incubation).
